Experimental data from patent US4472435A, “Benzophenone derivatives useful in treating heart failure” (Hoffman-La Roche Inc., priority 1980, dated 1984).

Key:
aldosterone = assay: Aldosterone antagonism in adrenalectomised rats (urine volume, sodium and potassium excretion); type: in vivo, Female Holtzmann rats; settings: for Volume (urine volume), in %, based on control animals / [K+] (potassium excretion), in %, based on control animals / [Na+] (sodium excretion), in %, based on control animals: 30 min before aldosterone s.c., adrenalectomised rats, 3 h urine, control = aldosterone only
Protocol: These aldosterone-antagonistic properties can be dmonstrated in adrenalectomized rats as illustrated hereinafter.
If compounds of formula I are administered to the animals before the treatment with aldosterone, then there is observed, in comparison with the animals which are treated only with aldosterone (control animals), a pronounced increase of the sodium excretion (i.e. the sodium retention caused by aldosterone is antagonised), whereas the potassium excretion and the urine volume are influenced to a lesser extent.
The standard experiment is carried out as follows:
Female Holtzmann rats (150-180 g) are bilaterally adrenalectomised 70 to 74 hours before the beginning of the experiment. After the operation, the animals receive a customary rat dry feed and 0.9% sodium chloride solution for drinking. 16-17 hours before the beginning of the experiment the feed is removed from the animals, but they can subsequently drink, as before, 0.9% sodium chloride solution ad libitum. At the beginning of the experiment the substance to be tested as an aldosterone-antagonist is administered to the animals by means of a stomach probe. 30 minutes later the animals receive a subcutaneous injection of […] of aldosterone. After a further 90 minutes, the urinary bladders of the animals are emptied by careful suprapubic pressure, whereupon the animals are placed individually in metabolic cages without food and without drink. The urine of the animals is then collected for 3 hours, whereupon their urinary bladders are once more emptied. The spontaneously excreted urine and the remaining urine obtained at the conclusion of the experiment by pressing-out the urinary bladders are collected in graduated centrifuge glasses. Sodium and potassium concentrations in the urine are determined with a flame photometer.
(§1) The following Table contains results obtained in the previously described experiment with representative compounds of general formula I. In this Table there are given for each of the compounds figuring therein the dosage administered (in mg/kg p.o.) as well as the percentage variation in the urine volume, the sodium excretion and the potassium excretion in comparison with the control animals (i.e. in comparison with the animals treated only with aldosterone). Moreover, the Table contains data concerning the acute toxicity of the compounds investigated (LD 50 in mg/kg in the case of single oral administration to mice).

[1] = Acute toxicity, single oral administration; settings: mouse, in vivo, mice
Text: as §1

[2] = aldosterone in adrenalectomised rats, compared to untreated animals

CN(C(=O)CN)c1ccc(N)cc1C(=NO)c1ccccc1Cl [CH3, COCH2 NH2, OH, Cl, NH2, 2,4'-diamino-2'-[o-chloro-α-(hydroxyimino)benzyl]-N-methylacetanilide]
Volume (urine volume), in %, based on control animals (aldosterone; 1 mg/kg p.o.): 155% | [K+] (potassium excretion), in %, based on control animals (aldosterone; 1 mg/kg p.o.): 94% | [Na+] (sodium excretion), in %, based on control animals (aldosterone; 1 mg/kg p.o.): 254% | LD50 [1]: > 5000 mg/kg

NCC(=O)Nc1ccc([N+](=O)[O-])cc1C(=NO)c1ccccc1Cl [H, COCH2 NH2, OH, Cl, NO2, 2-amino-2'-[o-chloro-α-(hydroxyimino)-benzyl]-4'-nitro-acetanilide]
Volume (urine volume), in %, based on control animals (aldosterone; 0.1 mg/kg p.o.): 114% | [K+] (potassium excretion), in %, based on control animals (aldosterone; 0.1 mg/kg p.o.): 99% | [Na+] (sodium excretion), in %, based on control animals (aldosterone; 0.1 mg/kg p.o.): 211% | LD50 [1]: > 5000 mg/kg

CC(=NO)c1ccc(NC(=O)CN)c(C(=NO)c2ccccc2F)c1 [H, COCH2 NH2, OH, F, drawing 7, 2-amino-2'-[o-fluoro-α-(hydroxyimino)benzyl]-4'-[1-(hydroxyimino)ethyl]acetanilide]
Volume (urine volume), in %, based on control animals (aldosterone; 0.01 mg/kg p.o.): 161% | [K+] (potassium excretion), in %, based on control animals (aldosterone; 0.01 mg/kg p.o.): 86% | [Na+] (sodium excretion), in %, based on control animals (aldosterone; 0.01 mg/kg p.o.): 215% | Volume (urine volume), in %, based on control animals (aldosterone; 1 mg/kg p.o.): 156% | [K+] (potassium excretion), in %, based on control animals (aldosterone; 1 mg/kg p.o.): 102% | [Na+] (sodium excretion), in %, based on control animals (aldosterone; 1 mg/kg p.o.): 327% | LD50 [1]: > 5000 mg/kg

NCC(=O)Nc1ccc([N+](=O)[O-])cc1C(=NO)c1ccccc1 [H, COCH2 NH2, OH, H, NO2, 2-amino-2'-[α-(hydroxyimino)-benzyl]-4'-nitro-acetanilide]
Volume (urine volume), in %, based on control animals (aldosterone; 0.1 mg/kg p.o.): 152% | [K+] (potassium excretion), in %, based on control animals (aldosterone; 0.1 mg/kg p.o.): 97% | [Na+] (sodium excretion), in %, based on control animals (aldosterone; 0.1 mg/kg p.o.): 230% | LD50 [1]: > 5000 mg/kg

C[C@]12CCC(=O)C=C1CC[C@@H]1[C@@H]2[C@@H](O)C[C@]2(C=O)[C@@H](C(=O)CO)CC[C@@H]12 [aldosterone, reference compound]
potassium excretion after aldosterone (in words) (aldosterone; [2]): increased potassium excretion | sodium excretion after aldosterone (in words) (aldosterone; [2]): pronounced reduction of the sodium excretion | urine volume after aldosterone (in words) (aldosterone; [2]): reduction of the excreted urine volume
